Measured values taken from ChEMBL document CHEMBL6153088, “Discovery of 1,4-Disubstituted Cyclohexene Analogues as Selective GPR119 Agonists for the Treatment of Type 2 Diabetes” (J Med Chem, 2025).
pEC50: −log10 of the molar value.

Legend:
[1] = biological target: T1, Glucose-dependent insulinotropic receptor (Homo sapiens, UniProt Q8TDV5); assay: Agonist activity at human GPR119 expressed in CHO cells assessed as cAMP level measured after 90 mins by HTRF based assay; format: functional, cell-based
T1 sequence (Q8TDV5 whole entry): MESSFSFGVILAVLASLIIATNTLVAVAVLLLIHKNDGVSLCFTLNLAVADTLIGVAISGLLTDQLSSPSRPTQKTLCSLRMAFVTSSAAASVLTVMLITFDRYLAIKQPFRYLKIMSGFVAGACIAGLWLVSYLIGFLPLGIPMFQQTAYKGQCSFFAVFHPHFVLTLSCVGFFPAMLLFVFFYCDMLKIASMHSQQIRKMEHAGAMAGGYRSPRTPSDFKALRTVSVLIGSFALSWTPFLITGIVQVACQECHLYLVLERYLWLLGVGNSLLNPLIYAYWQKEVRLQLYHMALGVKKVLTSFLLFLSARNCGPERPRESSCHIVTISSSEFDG

Mus musculus [2] = assay: (§1) Anti-diabetic activity in overnight fasted male C57BL/6J mouse assessed as reduction in blood glucose level by measuring reduction in AUC […] at 20 mg/kg pre-administered with compound for 30 min followed by glucose bolus addition and measured upto 120 min by oral glucose tolerance test relative to control; format: functional; design: scale not given: the % may be the effect or the level left; settings: time <= 150 min, 2.5 h
Mus musculus [3] = assay: Anti-diabetic activity in overnight fasted male C57BL/6J mouse assessed as reduction in blood glucose level administered twice a day preincubated with compound for 30 min followed by glucose bolus addition and measured upto 120 min by oral glucose tolerance test; format: functional, organism-based; settings: dose 3-30 mg/kg, time <= 150.0 min
Mus musculus [4] = assay: as §1, with “at 30” for “at 20”; format: functional; design: scale not given: the % may be the effect or the level left; settings: time <= 150 min, 2.5 h
[5] = biological target: T1, Glucose-dependent insulinotropic receptor; assay: Agonist activity at human GPR119 expressed in CHO-K1 cells co-transfected with pcDNA3.1 assessed as increase in cAMP level; format: functional, cell-based
[6] = biological target: T1, Glucose-dependent insulinotropic receptor; assay: Agonist activity at human GPR119; format: functional

pEC50 [1] | SMILES | Activity (Mus musculus [2]) [%] | also measured
7.85 | CN(CCO)C(=O)C1CC=C(c2ccc(OCC3CCN(C(=O)OC(C)(C)C)CC3)cc2)CC1 (configuration not stated) | 6.8 | 
8.17 | CCc1cnc(N2CCC(COc3ccc(C4=CCC(C(=O)N5CCC[C@@H]5CO)CC4)cc3)CC2)nc1 (some centres not stated) | 16.6 | Activity (Mus musculus [3]): Dose-dependent-effect; Activity (Mus musculus [4]): 25.8%
7.26 | CC(C)c1noc(N2CCC(COc3ccc(C4=CCC(C(=O)N5CCCC5)CC4)cc3)CC2)n1 (configuration not stated) | 5.9 | 
 | CC[C@@H](Oc1ccc(C(=O)C2CC2)cc1)c1nc(-c2ccc(C(=O)N[C@H](C)CO)c(F)c2)no1 [FIRUGLIPEL] |  | pEC50 [5]: 7.29
7.44 | CCc1cnc(N2CCC(COc3ccc(C4=CCC(C(=O)N5CC[C@H](CO)C5)CC4)cc3)CC2)nc1 (some centres not stated) | 13 | 
7.47 | CC(C)(C)OC(=O)N1CCC(COc2ccc(C3=CCC(C(=O)NCC(F)F)CC3)cc2)CC1 (configuration not stated) | 10.6 | 
 | CCOC(=O)c1ccc(-c2ccc(OCC3CCN(C(=O)OC(C)(C)C)CC3)cc2)cc1 |  | pEC50 [6]: 6.92
6.85 | CC(C)(C)OC(=O)N1CCC(COc2ccc(C3=CCC(C(=O)NCCO)CC3)cc2)CC1 (configuration not stated) | 6.7 | 
7.39 | CC(C)c1noc(N2CCC(COc3ccc(C4=CCC(C(=O)N5CCC5)CC4)cc3)CC2)n1 (configuration not stated) | 4.2 | 
7.74 | CC(C)c1noc(N2CCC(COc3ccc(C4=CCC(C(=O)N5CCOCC5)CC4)cc3)CC2)n1 (configuration not stated) | 4.1 | 
7.42 | CCc1cnc(N2CCC(COc3ccc(C4=CCC(C(=O)N5CCC5)CC4)cc3)CC2)nc1 (configuration not stated) | 14.6 | 
7.28 | CCOC(=O)C1CC=C(c2ccc(OCC3CCN(C(=O)OC(C)(C)C)CC3)cc2)CC1 (configuration not stated) |  | 
 | CCOC(=O)C1CCC(c2ccc(OCC3CCN(C(=O)OC(C)(C)C)CC3)cc2)CC1 (configuration not stated) |  | pEC50 [6]: 6.43
7.40 | CC(C)(C)OC(=O)N1CCC(COc2ccc(C3=CCC(C(=O)NC4CC4)CC3)cc2)CC1 (configuration not stated) |  | 
7.37 | CCc1cnc(N2CCC(COc3ccc(C4=CCC(C(=O)N5CC[C@@H](CO)C5)CC4)cc3)CC2)nc1 (some centres not stated) | 7.6 | 
